Measurements published in PMC7409197, “Adenosine Receptors as Neuroinflammation Modulators: Role of A1 Agonists and A2A Antagonists” (Cells, 2020).

Columns and labels:
A1AR = target: T1, A1AR (Homo sapiens, UniProt P30542); assay: A1AR affinity (Ki), method not described; assay type: binding; conditions: unpublished results of the authors; read-out: KiA1AR
T1 sequence (P30542 1-326): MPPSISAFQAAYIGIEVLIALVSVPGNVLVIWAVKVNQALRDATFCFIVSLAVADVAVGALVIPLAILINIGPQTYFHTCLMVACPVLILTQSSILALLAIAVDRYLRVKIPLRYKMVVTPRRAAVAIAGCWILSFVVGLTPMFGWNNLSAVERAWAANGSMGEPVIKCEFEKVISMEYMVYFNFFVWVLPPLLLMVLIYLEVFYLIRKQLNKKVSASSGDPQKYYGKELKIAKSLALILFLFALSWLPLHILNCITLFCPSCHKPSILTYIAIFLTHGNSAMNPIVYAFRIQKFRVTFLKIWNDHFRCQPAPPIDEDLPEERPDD

A2AAR = A2AAR (Homo sapiens, UniProt P29274); assay: A2AAR functional antagonism (IC50), method not described; assay type: biochemical; conditions: unpublished results of the authors; read-out: IC50A2AAR
mixed glial cells = assay: Trypan blue exclusion test in mixed glial cells; assay type: cell-based, rat; conditions: 30 min
Experimental: 6 × 10^5 mixed glial cells were seeded in a six well plate and after 24 h incubated with C2 10 nM alone or in presence of CK cocktail. After 30 min at 37 °C cells were detached with Trypsin-EDTA solution and 10 µL of cells were added to 40 μL of 0.4% trypan blue solution. Cells were counted with a Neubauer chamber and the number of live cells was calculated.

Sequence of A2AAR (P29274 whole entry): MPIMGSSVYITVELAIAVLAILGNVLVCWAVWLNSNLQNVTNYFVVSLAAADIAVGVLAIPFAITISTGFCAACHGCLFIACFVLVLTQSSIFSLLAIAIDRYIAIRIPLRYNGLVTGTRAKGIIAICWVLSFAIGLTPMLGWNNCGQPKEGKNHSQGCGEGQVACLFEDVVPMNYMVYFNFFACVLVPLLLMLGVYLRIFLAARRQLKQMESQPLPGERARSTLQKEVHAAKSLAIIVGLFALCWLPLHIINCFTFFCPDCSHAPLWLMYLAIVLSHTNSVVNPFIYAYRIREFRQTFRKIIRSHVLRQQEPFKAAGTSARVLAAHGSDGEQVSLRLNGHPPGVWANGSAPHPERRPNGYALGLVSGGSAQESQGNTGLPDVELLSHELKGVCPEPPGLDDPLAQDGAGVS

Ki (A1AR): 17 nM
IC50 (A2AAR): 251 nM
SMILES: CCn1c(Cl)nc2c(N)nc(OCCc3ccccc3)nc21 [Compound C2, 8-chloro-9-ethyl-2-phenethoxyadenine]
live cells vs. control (trypan blue) (mixed glial cells; 10 nM alone): 123 ± 4.5
number of cells vs. control (trypan blue) (mixed glial cells; 10 nM, after aggression with CK cocktail): 129 ± 3.5
